Data reported in BindingDB's records for doi:10.1021/jm300576q (Georgetown University Medical Center, 2012).

Experiment: Inhibition of VEGFR2-mediated angiogenesis in human HUVEC cells after 24 hrs by inverted photomicroscopic analysis

IC50: 8.8 µM
Structure (SMILES): COC(=O)Nc1nc2ccc(C(=O)c3ccccc3)cc2[nH]1 [methyl (5-benzoyl-1H-benzimidazol-2-yl)carbamate]
